How the values were obtained:
[1] = tested on: Bacillus subtilis ATCC 6633; assay: Modified radial diffusion assay (zones of growth inhibition); assay type: cell-based; conditions: pH 5.5 versus pH 7.5
Procedure: (§1) An agar radial diffusion assay has been used as described herein to determine antimicrobial activities of proteins against microbial pathogens in vitro. One million CFU will be mixed into 10 ml (i.e., 1×10^5 CFU/ml) of melted 1% agarose (in 10 mM NaHPO4 and cooled to 42° C.) containing minimal nutrient and adjusted to either pH 5.5 or pH 7.2. The agar is solidified in culture dishes, and sample wells are formed. Peptides at various concentrations are dissolved in 10 μl of 0.01% acetic acid buffer (pH 5.5 or 7.2), loaded into individual wells, and incubated at 37° C. for three hours. The plate is then overlayed with 1% agarose containing nutrients and incubated (37° C., for at least 24 hours). Peptides purified by RP-HPLC lacking antimicrobial activity are tested in parallel as controls. Zones of inhibition are measured to quantify antimicrobial activity. This assay will not distinguish between microbicidal and microbiostatic actions, but is highly sensitive to peptides with one or both functions.
(§2) The following assay is designed to measure the relative antimicrobial activity of peptides by determining zones of growth inhibition.
(§3) The top eleven prioritized target sequences identified in Example I (see Table 21) were synthesized by solid-phase chain extension synthesis using conventional techniques. Each synthetic peptide was purified by RP-HPLC, and authenticated for purity and correct sequence by mass spectroscopy. Stock concentrations of the synthetic peptides were prepared at 1 mg/mL in 0.01% acetic acid and adjusted to pH 7.2. Synthetic peptides were assessed for antimicrobial efficacy, spectra, and conditional optima (pH 5.5 or 7.5) using the following modified radial diffusion assay, as detailed in Yount and Yeaman, PNAS […] (2004).
(§4) Molecular grade agarose (1.0%) in 10 mM NaH2PO4H2O was prepared, pH adjusted to 7.5 or 5.5, and autoclaved for 15 minutes at 121° C., then held in a waterbath set at 48° C. until used. Mueller Hinton II overlay agarose was prepared by adding molecular grade agarose to Mueller Hinton II Broth at a final concentration of 1.0%, pH adjusted to 7.5 or 5.5, autoclaved for 10 minutes at 121° C., and then held at 48° C. until used.
(§5) Trypticase Soy Broth (TSB) (10 mL) we inoculated with an overnight growth of the test organism and incubated three to six hours until the organism reached log phase. The cells were collected by centrifugation, washed in PBS, then 0.01% acetic acid adjusted to pH 7.2. The pellet was resuspended in TSB and standardized to a 0.5 McFarland turbidity standard. A 10 μl aliquot of the inoculum is added to 10 mL of the pH-adjusted 1.0% molecular grade agarose cooled to 48° C. resulting in a final inoculum concentration of 5×10^5 CFU/mL. The suspension is poured into a 15×100 mm Petri dish and allowed to solidify.
(§6) After solidification had occurred, five 4 mm diameter wells were bored into the agarose. The central well was used as the acetic acid control while 10 μl of peptide stock solution was added to each of the other wells resulting in a final concentration of 10 μg peptide/well. The plates were incubated upright for three hours at 37° C., then overlaid with 10 mL of Mueller Hinton II agarose. After the overlay solidified, the plates were inverted and incubated overnight at 37° C.
(§7) The synthetic peptides identified in Table 22 were assayed for antimicrobial activity against known pathogenic microorganisms. These pathogenic microorganisms included five species of bacteria (Staphylococcus aureus, Escherichia coli, Salmonella typhimurium, Pseudomonas aeruginosa and Bacillus subtilis) and one species of fungi (Candida albicans) (see Table 23). Zones of growth inhibition were measured and were grouped as complete and/or partial growth zones for the assayed microorganism. Zones were considered complete clearance when there was no visible growth (i.e. completely clear or free of growth). […]

[2] = tested on: Escherichia coli ML-35; assay: as above; assay type: cell-based; conditions: pH 5.5 versus pH 7.5
Procedure: as §1, §2, §3, §4, §5, §6, §7

[3] = tested on: Pseudomonas aeruginosa 01; assay: as above; assay type: cell-based; conditions: pH 5.5 versus pH 7.5
Procedure: as §1, §2, §3, §4, §5, §6, §7

[4] = tested on: Salmonella typhimurium 14028; assay: as above; assay type: cell-based; conditions: pH 5.5 versus pH 7.5
Procedure: as §1, §2, §3, §4, §5, §6, §7

[5] = tested on: Acinetobacter baumannii isolates; assay: Radial diffusion assay, Example III; assay type: cell-based; conditions: pH 5.5 vs. pH 7.5
Procedure: as §3, §4, §5, §6
(§8) The synthetic peptides identified in Table 22 were assayed for antimicrobial activity against known pathogenic microorganisms. These pathogenic microorganisms included five species of bacteria (Staphylococcus aureus, Escherichia coli, Salmonella typhimurium, Pseudomonas aeruginosa and Bacillus subtilis) and one species of fungi (Candida albicans) (see Table 23). Zones of growth inhibition were measured and were grouped as complete and/or partial growth zones for the assayed microorganism. Zones were considered complete clearance when there was no visible growth (i.e. completely clear or free of growth). Zones were considered partial clearance when growth was impeded or partially cleared (i.e. reduction in microbial density as compared to adjacent confluent growth). The larger the zone size, the greater the antimicrobial activity of the test peptide. The lack of a zone is an indication of no antimicrobial activity of the test peptide against the target organism under the conditions tested.
(§9) Further to the methods disclosed in Example II, utilizing the same antimicrobial assay above, the antimicrobial activity of peptides Hol-III-4 (SEQ ID NO: 268) and Ncl-VIII-6 (SEQ ID NO: 152 was determined by identifying zones of growth inhibition.
(§10) Hol-III-4 and Ncl-VIII-6 peptides were assayed for antimicrobial activity against a panel of drug-resistant Gram-negative bacterial pathogens, specifically Pseudomonas aeruginosa, and various Acinetobacter spp. strains. […] The RP-1 peptide is well known in the art to have antimicrobial activity, as illustrated in Yeaman et al., Antimicrobial Agents and Chemotherapy, 46(12):3883-3891 (2002). The 6W-RP-1 peptide is a 6-Trp variant of RP-1, which also has antimicrobial activity, as illustrated in Kilelee et al, Antimicrobial Agents and Chemotherapy 54(10):4476-4479 (2010).

[6] = tested on: Acinetobacter spp. strains (drug-resistant); assay: Radial diffusion assay, Example III; assay type: cell-based; conditions: pH 5.5 and pH 7.5; all strains tested
Procedure: as §3, §4, §5, §6, §8, §9, §10

[7] = tested on: Pseudomonas aeruginosa strains (drug-resistant); assay: Radial diffusion assay, Example III; assay type: cell-based; conditions: pH 5.5 and pH 7.5; all strains tested
Procedure: as §3, §4, §5, §6, §8, §9, §10

[8] = known in the art; cited from earlier work

Substance	effect of acidic pH on antimicrobial activity [1]	effect of acidic pH on antimicrobial activity [2]	effect of acidic pH on antimicrobial activity [3]	effect of acidic pH on antimicrobial activity [4]	pH dependence of antimicrobial activity [5]	antimicrobial activity (zone of inhibition) [6]	antimicrobial activity (zone of inhibition) [7]	antimicrobial activity [8]
H-ALFYFASKLYLKALYTKV-NH2 [BaxP-I-18]	did not appear to affect the activity	did not appear to affect the activity	did not appear to affect the activity	did not appear to affect the activity	–	–	–	–
H2N-SIGSLIKRFAYKKAGV-CONH2 (H-SIGSLIKRFAYKKAGV-NH2) [Hol-III-4, designed from Holin protein]	did not appear to affect the activity	did not appear to affect the activity	did not appear to affect the activity	did not appear to affect the activity	pH dependent	significant antimicrobial activity	significant antimicrobial activity	–
H2N-IRLVSKYGKSKGIAYI-CONH2 (H-IRLVSKYGKSKGIAYI-NH2) [Ncl-VIII-6, designed from Nucleolin]	did not appear to affect the activity	did not appear to affect the activity	did not appear to affect the activity	did not appear to affect the activity	pH dependent	significant antimicrobial activity	significant antimicrobial activity	–
N-AALYKKKIIKKLLES-C [PMP-2, C-terminal helix of the consensus molecule cPMP]	–	–	–	–	–	–	–	known to have antimicrobial activity

Reference: US9562083B2, “Peptides and methods for inducing cell death” (Los Angeles Biomedical Research Institute at Harbor-UCLA …, priority 2010, dated 2017)
